For 1 compound, Km results are on record in US5006468A, “Novel urease and method of producing the same” (Suntory Limited, priority 1987, dated 1991).

SMILES strings stand for the structures.

This test has as its system urease produced by Arthrobacter mobilis SAM0752 (FERM BP-2127). The test can be described thus: Km value for urea of the purified urease. In kind it is biochemical. Conditions: 0.1M acetic acid buffer (pH 4.5), 37° C. As for the experimental part:
The activity was determined by measuring the amount of ammonia produced by decomposition of urea during the enzyme reaction per unit of time. In particular, 0.025 ml of an enzyme solution was added to a reaction solution containing 0.2 ml of a 0.1M acetic acid buffer (pH 4.5) and 0.025 ml of a 0.1M urea solution, followed by incubation at 37° C. for a given time (10 to 20 minutes). The reaction was terminated by adding 0.025 ml of a 33% trichloroacetic acid solution. […] of the reaction solution was added to 1 ml of a coloring solution which had been prepared by mixing 10 ml of a 0.3M phosphate buffer (pH 7.5), 0.56 ml of 25 mg/ml o-phthalaldehyde in ethanol, and 0.56 ml of 5 mg/ml 2-mercaptoethanol in ethanol. After allowing the thus-obtained mixture to stand for 45 minutes at room temperature, the increase in absorbance at a wavelength of 410 nm was measured. The enzyme activity was then calculated from a calibration curve which was formed using predetermined amounts of ammonium chloride as a reference substance. This method was based on the method by Heini et al. [Eur. J. Biochem., 162, 541 (1987)]. The activity unit of the enzyme was defined as the amount of ammonia produced in terms of μ mol/min.

One may read the Km as the concentration of substrate that gives half-maximal velocity. Turning to `NC(N)=O` [urea], the Km reads like this: (20% ethanol added) approximately 3.7 mM; (no ethanol added) approximately 3.6 mM.
